Reference: ChEMBL document CHEMBL1687815, “In vivo selection of a missense mutation in adeR and conversion of the novel blaOXA-164 gene into blaOXA-58 in carbapenem-resistant Acinetobacter baumannii isolates from a hospitalized patient” (2010)
In brackets after ≈: the same amount, converted by molar mass. Activity calls are given as the source filed them. The calls are words filed in the database; no cut-off is given here.

Columns and labels:
[1] = test system: Acinetobacter baumannii; experiment: Antimicrobial activity against Acinetobacter baumannii isolate L expressing beta-lactamase OXA-58 isolated from tracheal secretion of patient by vitek 2 system
[2] = test system: Acinetobacter baumannii; experiment: Antimicrobial activity against Acinetobacter baumannii isolate C expressing beta-lactamase OXA-164 isolated from tracheal secretion of patient by vitek 2 system
[3] = test system: Acinetobacter baumannii; experiment: Antimicrobial activity against Acinetobacter baumannii isolate F expressing beta-lactamase OXA-164 isolated from tracheostoma of patient by vitek 2 system
[4] = test system: Acinetobacter baumannii; experiment: Antimicrobial activity against Acinetobacter baumannii isolate E expressing beta-lactamase OXA-164 isolated from tracheal secretion of patient by vitek 2 system
[5] = test system: Acinetobacter baumannii; experiment: Antimicrobial activity against Acinetobacter baumannii isolate K expressing beta-lactamase OXA-58 isolated from blood culture of patient by vitek 2 system
[6] = test system: Acinetobacter baumannii; experiment: Antimicrobial activity against Acinetobacter baumannii isolate G expressing beta-lactamase OXA-58 isolated from tracheal secretion of patient by vitek 2 system
[7] = test system: Acinetobacter baumannii; experiment: Antimicrobial activity against Acinetobacter baumannii isolate H expressing beta-lactamase OXA-58 isolated from tracheal secretion of patient by vitek 2 system
[8] = test system: Acinetobacter baumannii; experiment: Antimicrobial activity against Acinetobacter baumannii isolate D expressing beta-lactamase OXA-164 isolated from tracheal secretion of patient by vitek 2 system
[9] = test system: Acinetobacter baumannii; experiment: Antimicrobial activity against Acinetobacter baumannii isolate J expressing beta-lactamase OXA-58 isolated from bedsore by vitek 2 system
[10] = test system: Acinetobacter baumannii; experiment: Antimicrobial activity against Acinetobacter baumannii isolate I expressing beta-lactamase OXA-58 isolated from tracheal secretion of patient by vitek 2 system
[11] = test system: Acinetobacter baumannii; experiment: Antimicrobial activity against Acinetobacter baumannii isolate M expressing beta-lactamase OXA-58 isolated from tracheal secretion of patient by vitek 2 system
[12] = test system: Acinetobacter baumannii; experiment: Antimicrobial activity against Acinetobacter baumannii isolate B expressing beta-lactamase OXA-164 isolated from tracheal secretion of patient by vitek 2 system
[13] = test system: Acinetobacter baumannii; experiment: Antimicrobial activity against Acinetobacter baumannii isolate A expressing beta-lactamase OXA-164 isolated from tracheal secretion of patient by vitek 2 system
[14] = test system: Acinetobacter baumannii; experiment: Antimicrobial activity against Acinetobacter baumannii isolate G expressing beta-lactamase OXA-58 isolated from tracheal secretion of patient by Etest
[15] = test system: Acinetobacter baumannii; experiment: Antimicrobial activity against Acinetobacter baumannii isolate K expressing beta-lactamase OXA-58 isolated from blood culture of patient by Etest
[16] = test system: Acinetobacter baumannii; experiment: Antimicrobial activity against Acinetobacter baumannii isolate M expressing beta-lactamase OXA-58 isolated from tracheal secretion of patient by Etest
[17] = test system: Acinetobacter baumannii; experiment: Antimicrobial activity against Acinetobacter baumannii isolate B expressing beta-lactamase OXA-164 isolated from tracheal secretion of patient by Etest
[18] = test system: Acinetobacter baumannii; experiment: Antimicrobial activity against Acinetobacter baumannii isolate C expressing beta-lactamase OXA-164 isolated from tracheal secretion of patient by Etest
[19] = test system: Acinetobacter baumannii; experiment: Antimicrobial activity against Acinetobacter baumannii isolate L expressing beta-lactamase OXA-58 isolated from tracheal secretion of patient by Etest
[20] = test system: Acinetobacter baumannii; experiment: Antimicrobial activity against Acinetobacter baumannii isolate H expressing beta-lactamase OXA-58 isolated from tracheal secretion of patient by Etest
[21] = test system: Acinetobacter baumannii; experiment: Antimicrobial activity against Acinetobacter baumannii isolate J expressing beta-lactamase OXA-58 isolated from bedsore by Etest
[22] = test system: Acinetobacter baumannii; experiment: Antimicrobial activity against Acinetobacter baumannii isolate E expressing beta-lactamase OXA-164 isolated from tracheal secretion of patient by Etest
[23] = test system: Acinetobacter baumannii; experiment: Antimicrobial activity against Acinetobacter baumannii isolate I expressing beta-lactamase OXA-58 isolated from tracheal secretion of patient by Etest
[24] = test system: Acinetobacter baumannii; experiment: Antimicrobial activity against Acinetobacter baumannii isolate F expressing beta-lactamase OXA-164 isolated from tracheostoma of patient by Etest
[25] = test system: Acinetobacter baumannii; experiment: Antimicrobial activity against Acinetobacter baumannii isolate D expressing beta-lactamase OXA-164 isolated from tracheal secretion of patient by Etest
[26] = test system: Acinetobacter baumannii; experiment: Antimicrobial activity against Acinetobacter baumannii isolate A expressing beta-lactamase OXA-164 isolated from tracheal secretion of patient by Etest

Row | Molecule | MIC [1] | MIC [2] | MIC [3] | MIC [4] | MIC [5] | MIC [6] | MIC [7] | MIC [8] | MIC [9] | MIC [10] | MIC [11] | MIC [12] | MIC [13] | also measured
1 | CC(C)(O/N=C(\C(=O)N[C@@H]1C(=O)N2C(C(=O)[O-])=C(C[n+]3ccccc3)CS[C@H]12)c1csc(N)n1)C(=O)O | inactive | inactive | inactive | inactive | inactive | inactive | inactive | inactive | inactive | inactive | inactive | inactive | inactive | 
2 | CO/N=C(\C(=O)N[C@@H]1C(=O)N2C(C(=O)O)=C(COC(C)=O)CS[C@H]12)c1csc(N)n1 | inactive | inactive | inactive | inactive | inactive | inactive | inactive | inactive | inactive | inactive | inactive | inactive | inactive | 
3 | CO/N=C(\C(=O)N[C@@H]1C(=O)N2C(C(=O)[O-])=C(C[N+]3(C)CCCC3)CS[C@H]12)c1csc(N)n1 | inactive | inactive | inactive | inactive | inactive | inactive | inactive | inactive | inactive | inactive | inactive | inactive | inactive | 
4 | CO[C@@]1(NC(=O)Cc2cccs2)C(=O)N2C(C(=O)O)=C(COC(N)=O)CS[C@@H]21 | inactive | inactive | inactive | inactive | inactive | inactive | inactive | inactive | inactive | inactive | inactive | inactive | inactive | 
5 | COc1c(N2C[C@@H]3CCCN[C@@H]3C2)c(F)cc2c(=O)c(C(=O)O)cn(C3CC3)c12 | inactive | inactive | inactive | inactive | inactive | inactive | inactive | inactive | inactive | inactive | inactive | inactive | inactive | 
6 | C[C@@H]1O[C@@H]1P(=O)(O)O | inactive | inactive | inactive | inactive | inactive | inactive | inactive | inactive | inactive | inactive | inactive | inactive | inactive | 
7 | O=C(O)c1cn(C2CC2)c2cc(N3CCNCC3)c(F)cc2c1=O | inactive | inactive |  | inactive | inactive | inactive | inactive | inactive | inactive | inactive | inactive | inactive | inactive | 
8 | NCC[C@H](O)C(=O)N[C@@H]1C[C@H](N)[C@@H](O[C@H]2O[C@H](CN)[C@@H](O)[C@H](O)[C@H]2O)[C@H](O)[C@H]1O[C@H]1O[C@H](CO)[C@@H](O)[C@H](N)[C@H]1O [AMIKACIN] | ≥ 64 µg/mL | 32 µg/mL (≈ 54.6 µM) | ≥ 64 µg/mL | ≤ 2 µg/mL | ≥ 64 µg/mL | ≥ 64 µg/mL | ≥ 64 µg/mL | ≤ 2 µg/mL | ≥ 64 µg/mL | ≥ 64 µg/mL | ≥ 64 µg/mL | ≥ 64 µg/mL | ≥ 64 µg/mL | 
9 | C[C@H]1COc2c(N3CCN(C)CC3)c(F)cc3c(=O)c(C(=O)O)cn1c23.C[C@H]1COc2c(N3CCN(C)CC3)c(F)cc3c(=O)c(C(=O)O)cn1c23.O [LEVOFLOXACIN] |  |  |  |  |  |  |  |  |  |  |  |  |  | MIC [14]: ≥ 64 µg/mL; MIC [15]: ≥ 64 µg/mL; MIC [16]: ≥ 64 µg/mL; MIC [17]: 8 µg/mL; MIC [18]: 8 µg/mL; MIC [19]: ≥ 64 µg/mL; MIC [20]: ≥ 64 µg/mL; MIC [21]: ≥ 64 µg/mL; MIC [22]: 16 µg/mL; MIC [23]: ≥ 64 µg/mL; MIC [24]: 8 µg/mL; MIC [25]: 8 µg/mL; MIC [26]: 8 µg/mL
10 | CN(C)c1cc(NC(=O)CNC(C)(C)C)c(O)c2c1C[C@H]1C[C@H]3[C@H](N(C)C)C(O)=C(C(N)=O)C(=O)[C@@]3(O)C(O)=C1C2=O [TIGECYCLINE] | ≥ 8 µg/mL | 2 µg/mL (≈ 3.41 µM) | 2 µg/mL (≈ 3.41 µM) | 2 µg/mL (≈ 3.41 µM) | ≥ 8 µg/mL | ≥ 8 µg/mL | ≥ 8 µg/mL | 2 µg/mL (≈ 3.41 µM) | ≥ 8 µg/mL | ≥ 8 µg/mL | ≥ 8 µg/mL | 2 µg/mL (≈ 3.41 µM) | 2 µg/mL (≈ 3.41 µM) | MIC [14]: 16 µg/mL (≈ 27.3 µM); MIC [15]: 16 µg/mL (≈ 27.3 µM); MIC [16]: 16 µg/mL (≈ 27.3 µM); MIC [17]: 4 µg/mL (≈ 6.83 µM); MIC [18]: 4 µg/mL (≈ 6.83 µM); MIC [19]: 16 µg/mL (≈ 27.3 µM); MIC [20]: 16 µg/mL (≈ 27.3 µM); MIC [21]: 16 µg/mL (≈ 27.3 µM); MIC [22]: 4 µg/mL (≈ 6.83 µM); MIC [23]: 16 µg/mL (≈ 27.3 µM); MIC [24]: 4 µg/mL (≈ 6.83 µM); MIC [25]: 4 µg/mL (≈ 6.83 µM); MIC [26]: 4 µg/mL (≈ 6.83 µM)
11 | NC[C@H]1O[C@H](O[C@H]2[C@H](O)[C@@H](O[C@H]3O[C@H](CO)[C@@H](O)[C@H](N)[C@H]3O)[C@H](N)C[C@@H]2N)[C@H](N)C[C@@H]1O [TOBRAMYCIN] | ≤ 1 µg/mL | ≤ 1 µg/mL | ≤ 1 µg/mL | ≤ 1 µg/mL | 8 µg/mL (≈ 17.1 µM) | ≤ 1 µg/mL | ≤ 1 µg/mL | ≤ 1 µg/mL | 8 µg/mL (≈ 17.1 µM) | ≤ 1 µg/mL | ≤ 1 µg/mL | ≤ 1 µg/mL | ≤ 1 µg/mL | MIC [14]: 4 µg/mL (≈ 8.56 µM); MIC [15]: 16 µg/mL (≈ 34.2 µM); MIC [16]: 4 µg/mL (≈ 8.56 µM); MIC [17]: 4 µg/mL (≈ 8.56 µM); MIC [18]: 2 µg/mL (≈ 4.28 µM); MIC [19]: 4 µg/mL (≈ 8.56 µM); MIC [20]: 4 µg/mL (≈ 8.56 µM); MIC [21]: 16 µg/mL (≈ 34.2 µM); MIC [22]: 2 µg/mL (≈ 4.28 µM); MIC [23]: 4 µg/mL (≈ 8.56 µM); MIC [24]: 2 µg/mL (≈ 4.28 µM); MIC [25]: 2 µg/mL (≈ 4.28 µM); MIC [26]: 2 µg/mL (≈ 4.28 µM)
12 | COLISTIN | < 1 µg/mL | < 1 µg/mL | < 1 µg/mL | < 1 µg/mL | < 1 µg/mL | < 1 µg/mL | < 1 µg/mL | < 1 µg/mL | < 1 µg/mL | < 1 µg/mL | < 1 µg/mL | < 1 µg/mL | < 1 µg/mL | 
13 | GENTAMICIN | inactive | inactive | inactive | inactive | inactive | inactive | inactive | inactive | inactive | inactive | inactive | inactive | inactive | 
